Where a name gives a salt, the structure may show the parent alone.
Biological target: T1, recombinant human XT-I (Homo sapiens, UniProt Q86Y38)
T1 sequence (Q86Y38 252-959 limits assumed): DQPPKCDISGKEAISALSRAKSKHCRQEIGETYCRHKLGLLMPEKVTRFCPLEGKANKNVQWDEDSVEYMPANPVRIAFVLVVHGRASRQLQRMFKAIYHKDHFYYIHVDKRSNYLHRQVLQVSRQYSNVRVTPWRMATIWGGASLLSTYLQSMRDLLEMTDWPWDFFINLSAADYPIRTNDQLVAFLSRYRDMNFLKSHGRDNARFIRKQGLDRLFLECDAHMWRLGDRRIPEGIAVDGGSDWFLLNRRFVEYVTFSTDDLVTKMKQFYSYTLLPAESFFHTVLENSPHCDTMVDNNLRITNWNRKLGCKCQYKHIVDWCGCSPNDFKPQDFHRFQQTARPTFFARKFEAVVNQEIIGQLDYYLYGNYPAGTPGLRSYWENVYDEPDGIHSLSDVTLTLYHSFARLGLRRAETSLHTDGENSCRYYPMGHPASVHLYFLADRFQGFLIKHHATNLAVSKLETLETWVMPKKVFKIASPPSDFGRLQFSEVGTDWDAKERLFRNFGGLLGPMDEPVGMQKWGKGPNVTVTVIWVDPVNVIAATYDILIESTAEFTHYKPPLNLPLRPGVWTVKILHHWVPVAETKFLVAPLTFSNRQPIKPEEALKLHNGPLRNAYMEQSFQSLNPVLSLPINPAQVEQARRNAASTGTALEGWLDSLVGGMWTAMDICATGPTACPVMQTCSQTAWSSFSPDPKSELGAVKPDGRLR
Assay: NP library inhibitor screening, UPLC/ESI-MS/MS XT-I assay
Assay type: biochemical
Details: Table S1; 50 μM inhibitor; relative to negative control containing DMSO; technical duplicates

Row | remaining activity at 50 µM [%] | SMILES | XT-I Activity [%]
1 |  | CN(N=O)C(=O)N[C@H]1C(O)O[C@H](CO)[C@@H](O)[C@@H]1O (mixture of isomers) [Compound 3, Streptozotocin (STZ)] | 101
2 | 122 | OC[C@H]1O[C@@H](O[C@@H]2[C@@H](CO)OC(O)(CO)[C@H]2O)[C@H](O)[C@@H](O)[C@H]1O (mixture of isomers) [Compound 16, Lactulose] | 
3 | 70 | CO[C@H]1C[C@@H]2CC[C@@H](C)[C@@](O)(O2)C(=O)C(=O)N2CCCC[C@H]2C(=O)O[C@H]([C@H](C)C[C@@H]2CC[C@@H](O)[C@H](OC)C2)CC(=O)[C@H](C)/C=C(\C)[C@@H](O)[C@@H](OC)C(=O)[C@H](C)C[C@H](C)/C=C/C=C/C=C/1C [Compound 1, Rapamycin (Sirolimus)] | 
4 |  | C[C@@H](O)[C@H]1C(=O)N2C(C(=O)O)=C(S[C@@H]3CN[C@H](CNS(N)(=O)=O)C3)[C@H](C)[C@H]12.O [Compound 4, Doripenem Hydrate] | 86
5 | 94 | C[C@H]1[C@H](NC(=O)/C(=N\OC(C)(C)C(=O)O)c2csc(N)n2)C(=O)N1S(=O)(=O)O [Compound 5, Aztreonam] | 
6 | 105 | CC[C@H]1OC(=O)[C@H](C)[C@@H](O[C@H]2C[C@@](C)(OC)[C@@H](O)[C@H](C)O2)[C@H](C)[C@@H](O[C@@H]2O[C@H](C)C[C@H](N(C)C)[C@H]2O)[C@](C)(O)C[C@@H](C)C(=O)[C@H](C)[C@@H](O)[C@]1(C)O [Compound 6, Erythromycin] | 
7 | 93 | Nc1[nH]c(=O)ncc1F [Compound 7, Flucytosine] | 
8 | 112 | CO[C@H]1/C=C/O[C@@]2(C)Oc3c(C)c(O)c4c(c3C2=O)C2=NC3(CCN(CC(C)C)CC3)NC2=C(NC(=O)/C(C)=C\C=C\[C@H](C)[C@H](O)[C@@H](C)[C@@H](O)[C@@H](C)[C@H](OC(C)=O)[C@@H]1C)C4=O [Compound 8, Rifabutin] | 
9 | 103 | Nc1ncnc2c1ncn2[C@@H]1O[C@H](CO)[C@@H](O)[C@@H]1O [Compound 9, Vidarabine] | 
10 | 115 | O=c1c(-c2ccc(O)cc2)coc2cc(O)ccc12 [Compound 10, Daidzein] | 
11 |  | CC(=O)[C@H]1CC[C@H]2[C@@H]3CC=C4C[C@@H](O)CC[C@]4(C)[C@H]3CC[C@]12C [Compound 11, Pregnenolone] | 95
12 |  | CO[C@H]1/C=C\C=C(/C)C(=O)NC2=CC(=O)C(NCCN(C)C)=C(C[C@@H](C)C[C@H](OC)[C@H](O)[C@@H](C)/C=C(\C)[C@@H]1OC(N)=O)C2=O.Cl [Compound 12, Alvespimycin (17-DMAG) HCl] | 120
13 | 114 | COc1cc([C@@H]2c3cc4c(cc3[C@@H](O[C@@H]3O[C@@H]5CO[C@@H](C)O[C@H]5[C@H](O)[C@H]3O)[C@H]3COC(=O)[C@H]23)OCO4)cc(OC)c1O [Compound 13, Etoposide] | 
14 | 121 | C=C1C(=O)O[C@@H]2/C=C(\C)CC/C=C(\C)CC[C@@H]12 [Compound 14, Costunolide] | 
15 | 86 | CC1=C(/C=C/C(C)=C/C=C/C(C)=C\C(=O)O)C(C)(C)CCC1 [Compound 15, Isotretinoin] | 
16 | 126 | O=C(O)c1cccnc1 [Compound 19, Nicotinic Acid] | 
17 | 83 | CO[C@H]1/C=C/O[C@@]2(C)Oc3c(C)c(O)c4c(O)c(c5c(nc6cc(C)ccn65)c4c3C2=O)NC(=O)/C(C)=C\C=C\[C@H](C)[C@H](O)[C@@H](C)[C@@H](O)[C@@H](C)[C@H](OC(C)=O)[C@@H]1C [Compound 20, Rifaximin] | 
18 | 108 | CCn1cc(C(=O)O)c(=O)c2cc(F)c(N3CCN(C)CC3)cc21 [Compound 21, Pefloxacin Mesylate] | 
19 | 121 | Cc1cc(NS(=O)(=O)c2ccc(N)cc2)no1 [Compound 22, Sulfamethoxazole] | 
20 | 104 | CC(=O)O[C@@]12CO[C@@H]1C[C@H](O)[C@@]1(C)C(=O)[C@H](O)C3=C(C)[C@@H](OC(=O)[C@H](O)[C@@H](NC(=O)OC(C)(C)C)c4ccccc4)C[C@@](O)([C@@H](OC(=O)c4ccccc4)[C@H]21)C3(C)C [Compound 23, Docetaxel] | 
21 |  | COc1cc2c(cc1O)CC[C@@H]1[C@@H]2CC[C@]2(C)[C@@H](O)CC[C@@H]12 [Compound 24, 2-Methoxyestradiol (2-MeOE2)] | 114

Row | remaining activity at 50 µM [%] | SMILES | XT-I Activity [%]
22 |  | C[C@@H]1C[C@H]2[C@@H]3CCC4=CC(=O)C=C[C@]4(C)[C@@]3(F)[C@@H](O)C[C@]2(C)[C@@]1(O)C(=O)CO [Compound 25, Dexamethasone (DHAP)] | 106
23 | 107 | C[C@@H](O)[C@H]1C(=O)N2C(C(=O)O)=C(S[C@@H]3CN[C@H](C(=O)N(C)C)C3)[C@H](C)[C@H]12 [Compound 26, Meropenem] | 
24 | 95 | C[C@@H]1C/C=C/C=C/C=C/C=C/[C@H](O[C@@H]2O[C@H](C)[C@@H](O)[C@H](N)[C@@H]2O)C[C@@H]2O[C@](O)(C[C@@H](O)C[C@H]3O[C@@H]3/C=C/C(=O)O1)C[C@H](O)[C@H]2C(=O)O [Compound 27, Natamycin] | 
25 | 70 | CCC(C)(C)c1ccc(CC(C)CN2C[C@@H](C)O[C@@H](C)C2)cc1 (some centres unmarked) [Compound 29, Amorolfine HCl] | 
26 | 50 | CO[C@H]1/C=C/O[C@@]2(C)Oc3c(C)c(O)c4c(O)c(c(/C=N/N5CCN(C6CCCC6)CC5)c(O)c4c3C2=O)NC(=O)/C(C)=C\C=C\[C@H](C)[C@H](O)[C@@H](C)[C@@H](O)[C@@H](C)[C@H](OC(C)=O)[C@@H]1C [Compound 30, Rifapentine] | 
27 | 82 | CCC(C)(C)C(=O)O[C@H]1C[C@@H](C)C=C2C=C[C@H](C)[C@H](CC[C@@H]3C[C@@H](O)CC(=O)O3)[C@H]21 [Compound 31, Simvastatin] | 
28 |  | CC(C)[C@H](N)C(=O)OCCOCn1cnc2c(=O)nc(N)[nH]c21.Cl [Compound 32, Valaciclovir HCl] | 74
29 | 95 | Cc1noc(NS(=O)(=O)c2ccc(N)cc2)c1C [Compound 33, Sulfisoxazole] | 
30 | 79 | CC(=O)O[C@H]1C(=O)[C@@]2(C)[C@H]([C@H](OC(=O)c3ccccc3)[C@]3(O)C[C@H](OC(=O)[C@H](O)[C@@H](NC(=O)c4ccccc4)c4ccccc4)C(C)=C1C3(C)C)[C@]1(OC(C)=O)CO[C@@H]1C[C@@H]2O [Compound 34, Paclitaxel] | 
31 | 87 | CC[C@]1(O)C[C@H]2CN(CCc3c([nH]c4ccccc34)[C@@](C(=O)OC)(c3cc4c(cc3OC)N(C=O)[C@H]3[C@@](O)(C(=O)OC)[C@H](OC(C)=O)[C@]5(CC)C=CCN6CC[C@]43[C@@H]65)C2)C1 [Compound 35, Vincristine sulfate] | 
32 | 75 | OC(Cn1cncn1)(Cn1cncn1)c1ccc(F)cc1F [Compound 36, Fluconazole] | 
33 | 51 | Oc1ccc(/C=C/c2cc(O)cc(O)c2)cc1 [Compound 37, Resveratrol] | 
34 | 89 | COC(=O)[C@H]1[C@H]2C[C@@H]3c4[nH]c5cc(OC)ccc5c4CCN3C[C@H]2C[C@@H](OC(=O)c2cc(OC)c(OC)c(OC)c2)[C@@H]1OC [Compound 38, Reserpine] | 
35 | 98 | C[C@H](CCC(=O)O)[C@H]1CC[C@H]2[C@@H]3[C@@H](O)C[C@@H]4C[C@H](O)CC[C@]4(C)[C@H]3CC[C@]12C [Compound 39, Ursodiol] | 
36 | 87 | O=C(N[C@H](CO)[C@H](O)c1ccc([N+](=O)[O-])cc1)C(Cl)Cl [Compound 40, Chloramphenicol] | 
37 | 77 | CO[C@H]1/C=C/O[C@@]2(C)Oc3c(C)c(O)c4c(O)c(c(/C=N/N5CCN(C)CC5)c(O)c4c3C2=O)NC(=O)/C(C)=C\C=C\[C@H](C)[C@H](O)[C@@H](C)[C@@H](O)[C@@H](C)[C@H](OC(C)=O)[C@@H]1C [Compound 41, Rifampin] | 
38 | 71 | Nc1nc2c(ncn2COCCO)c(=O)[nH]1 [Compound 42, Aciclovir] | 
39 | 89 | C[C@@H]1CN(c2c(F)c(N)c3c(=O)c(C(=O)O)cn(C4CC4)c3c2F)C[C@H](C)N1 [Compound 43, Sparfloxacin] | 
40 |  | C[C@@H]1[C@H](O)[C@@H](C)/C=C/C=C/CC/C=C/C=C/C=C/C=C/[C@H](O[C@H]2O[C@@H](C)[C@H](O)[C@@H](N)[C@H]2O)C[C@@H]2O[C@](O)(C[C@@H](O)[C@H](O)CC[C@@H](O)C[C@@H](O)C[C@@H](O)CC(=O)O[C@H]1C)C[C@H](O)[C@H]2C(=O)O [Compound 44, Nystatin (Fungicidin)] | 52
41 | 75 | O=[N+]([O-])c1cn2c(n1)OC[C@@H](OCc1ccc(OC(F)(F)F)cc1)C2 [Compound 45, PA-824] | 

Row | SMILES | remaining activity at 50 µM [%] | XT-I Activity [%]
42 | COc1cccc2c1C(=O)c1c(O)c3c(c(O)c1C2=O)C[C@@](O)(C(=O)CO)C[C@@H]3O[C@H]1C[C@H](N)[C@@H](O)[C@H](C)O1 [Compound 2, Epirubicin HCl] | 95 | 
43 | Cn1c(=O)c2[nH]cnc2n(C)c1=O [Compound 18, Aminophylline] | 122 | 
44 | CCCSc1ccc2nc(NC(=O)OC)[nH]c2c1 [Compound 28, Albendazole] | 77 | 

From PMC7589200, “Identification of Putative Non-Substrate-Based XT-I Inhibitors by Natural Product Library Screening” (Biomolecules, 2020)
